Data taken from US20060234916A1, “Cardioprotective agent” (Mizuo Miyazaki, priority 2003, published 2006).

Experiments:
[1] = target: T1, chymase (Homo sapiens, UniProt P23946); test: Suppression of chymase activity in blood vessel tissue of the living body after use during operation; format: in vivo; settings: used at 10 μM during the operation; effect for 4 weeks
T1 construct: the chymase activity in the blood vessel tissue of the living body; from tissue; host or cells: blood vessel tissue of the living body
T1 sequence (P23946 22-247): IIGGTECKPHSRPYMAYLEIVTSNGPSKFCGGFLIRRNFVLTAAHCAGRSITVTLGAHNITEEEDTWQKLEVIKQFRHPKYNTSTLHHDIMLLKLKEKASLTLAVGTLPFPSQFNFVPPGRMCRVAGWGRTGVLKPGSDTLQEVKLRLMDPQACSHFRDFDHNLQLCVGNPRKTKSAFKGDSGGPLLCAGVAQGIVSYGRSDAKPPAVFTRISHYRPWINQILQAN
Description: The agent of the present invention allows at least one protease inhibitor to be administered in a substantially sufficient amount so that the inhibitor may exist by an effective concentration in the site of heart to protect. […] The effective administration amount of chymase inhibitor (Suc-Val-Pro-L-Phe^P(Oph)2) can be selected in the range from 0.0001 to 100 mg per 1 kg of adult body weight, per one day. For example, it is administered intravenously by an amount selected in the range from 0.001 to 100 mg, preferably from 0.01 to 1 mg, and orally by an amount selected in the range from 0.1 to 100 mg, preferably from 0.1 to 10 mg.

[2] = Stability (half-life) in human blood plasma; format: in vitro ADME
Description: The agent of the present invention may contain the peptide derivative of an aryl diester of alpha-aminoalkylphosphonic acids. […] These derivatives are contained in human blood plasma, and remarkably stable under a variety of circumstances. For example, the preferred inhibitor Suc-Val-Pro-Phe^P(OPh)2, particularly preferably, Suc-Val-Pro-L-Phe^P(OPh)2 contained in the agent of the present invention, has a half-life of about 20 hours in human blood plasma. This stability is important, because it is predicted that a peritoneal exudate neutralizes most of protease inhibitors to damage their activity. Aminoalkylphosphonic acids are analogous of alpha-amino acids, and designated by the generally acceptable three-letter abbreviation for an amino acid followed by the superscript P. For example, diphenyl alpha-(N-benzyloxycarbonylamino)ethylphosphonate which is related to alanine is abbreviated Cbz-Ala^P(OPh)2.

[3] = system: Syrian hamsters myocardial infarction model; test: Survival rate after myocardial infarction (left coronary artery ligation) with oral administration; format: in vivo; settings: placebo 39.1%
Description: The left coronary artery was ligated in Syrian hamsters (SLC, Co., Ltd., Shizuoka, Japan), 6 weeks of age, weighing 85 to 90 g, to prepare a myocardial infarction model (Jpn. J. Pharmacol., 86, p. 203-214 2001 life Sci. 71 p. 437-446 2002). […] It should be noted that the significant test was performed by log rank test using the survival curve.

Molecule | chymase activity in the blood vessel tissue of the living body [1] | half-life in human blood plasma [2] | survival rate up to the 14th day ([3]; 10 mg/kg orally once a day, administered from the day before the operation, log rank test significant, FIG. 1) | survival rate up to the 14th day ([3]; 10 mg/kg orally, administered from the day after the operation, significant, FIG. 2)
CC(C)C(NC(=O)CCC(=O)O)C(=O)N1CCCC1C(=O)NC(Cc1ccccc1)P(=O)(Oc1ccccc1)Oc1ccccc1 [Suc-Val-Pro-L-Phe^P(OPh)2] | suppress significantly | about 20 hours | 88.9% | 88.9%
Suc-Val-Pro-Phe^P(OPh)2 | – | about 20 hours | – | –
